Assays:
S6-RP = experiment: Ex vivo FNAB drug sensitivity assay, S6-RP phosphorylation by Western blot; type: cell-based, human
Protocol: Tumor cells were collected by FNAB from the xenograft animals before the start of treatment using a sterile 25G short needle. Tumor samples were immediately transferred into 10 ml sterile prewarmed complete RPMI-1640 culture medium containing 10% FBS, penicillin (200 μg/ml), and streptomycin (200 μg/ml). Cells were incubated with 0.04% trypan blue (Sigma) dissolved in PBS (9.1 mM Na2HPO4, 1.7 mM NaH2PO4, and 150 mM NaCl, pH 7.4). The viable (membrane-intact) and dead cells were then counted using Neubauer hemocytometer and the total viable cell count was used to calculate final working volumes. Approximately 25,000 viable tumor cells were seeded into each well of a 6-well polypropylene microplate. Cells were treated in duplicates with vehicle (control), erlotinib (5 μM) or temsirolimus (1 μM) in a humidified 5% CO2 incubator at 37° C. for 6 hours. No fibroblast and endothelial cell growth was observed. Following treatment, non-adherent and adherent cells (only a few, collected by scraping) were pooled together and centrifuged at 500×g for 5 min at 4° C. After washing with PBS, cells were lysed in 100 μL of ice-cold lysis buffer (50 mM Tris-HCl, 0.25M NaCl, 0.1% (v/v) Triton X-100, 1 mM EDTA, 50 mM NaF, and 0.1 mM Na3VO4, pH 7.4) containing protease and phosphatase inhibitors (Roche Molecular Biochemicals) and analyzed by Western blot.
Protein concentrations obtained from FNAB samples were quantified before each experiment. Protein extracts (15 μg) were electrophoresed on a 10% (w/v) SDS-polyacrylamide gel. After electrotransfer to Immobilon-P membranes (Millipore), membranes were blocked at room temperature using SuperBlock (Pierce) for one hour. The primary antibodies were diluted at 1:1000 in 1:10 dilution of SuperBlock solution and the membranes were incubated with primary antibodies overnight at 4° C. The antibodies tested were phospho-ERK1/2 (Cell signal #9101), phospho-S6 Ribosomal Protein (Cell Signaling Technology, Beverly, Mass.) and total ERK1/2 (Cell Signaling Technology, Beverly, Mass.) and total S6 Ribosomal Protein (Cell Signaling Technology, Beverly, Mass.). The next day, the membranes were washed and incubated for 1 h at room temperature with horseradish peroxidase (HRP)-conjugated secondary antibodies, rabbit IgG-HRP (Santa Cruz Biotechnology), or mouse IgG-HRP (Santa Cruz Biotechnology) at a final dilution of 1:3000. […]
To test if tumor cells obtained by FNAB can be used in the ex vivo assays to predict tumor response in vivo, 25,000 viable cancer cells, as determined by trypan blue dye exclusion, were treated with erlotinib or temsirolimus for six hours, after which signal pathway inhibition was analyzed by Western blot. Under these cell culture conditions no fibroblast and endothelial cell growth was detected (data not shown). […]

[1] = tested on: Panc 265 human pancreas cancer xenograft; experiment: Panc 265 xenograft tumor growth; type: in vivo, nude mice; details: CCI-779 20 mg/kg days 1-5 i.p.
Text: Tumor tissue was then cut into slices (5×5×0.5−1 mm diameter) and implanted subcutaneously into nude mice. Tumor slices averaging 5×5×0.5−1 mm diameter from the patient, or 3×3×0.5−1 mm dia in serial passage were implanted subcutaneously into both flanks of nude mice. Tumors were removed under sterile conditions/laminar flow and reimplanted subcutaneously in groups of 5 mice. When the tumors on second passage of each group reached 1.5 cm, they were excised and cut into pieces of 3×3×3 mm, and transplanted on another 35-40 mice.
For the in vivo assessment experiments, treatment started when the mean tumor volumes reach approximately 200 mm.
To obtain cancer cells, each animal tumor was sampled as described above. […] At day 7 of therapy, AD/DQ slides were prepared from tumor FNAB samples to retrospectively correlate the results of in vivo and ex vivo chemosentitivty tests from the same xenograft animal.

p70S6K = experiment: IHC staining of phospho-p70S6K in resected xenograft tumor tissue; type: in vivo, human
Protocol: At the completion of the treatment course, xenografted tissues were harvested and fixed in formalin for 24 hrs. The fixed tissues were paraffin-embedded and cut in 0.5 micron sections onto positively-charged glass slides for immunohistochemical (IHC) labeling. Analysis was performed to determine the IHC pharmacodynamic effects of the drug in the targeted pathway. For IHC staining, slides were deparaffinized and rehydrated in graded concentrations of alcohol by standard techniques before antigen retrieval in citrate buffer pH 6.0 for 20 minutes. Next, the slides were cooled for 20 minutes before washing in 1× TBST (Dako Corp. Carpinteria, Calif.). All staining was performed using a DAKO Autostainer at room temperature. Slides were incubated in 3% H2O2 for 10 minutes, followed by the appropriate dilution of primary antibody for 60 minutes. Tris-HCl (0.2M, pH 7.5) (Quality Biological, Inc, Gaithersburg, Md.) was used as the antibody diluent solution. Dilutions of antibodies used were as follows: Total ERK1/2 (Cell Signaling Technology, Beverly, Mass.) 1:25, p-ERK1/2 (Thr202/Tyr204) (Cell Signaling Technology, Beverly, Mass.) 1:50, p70S6K (Santa Cruz Biotechnology) 1:50, and pp70S6K (Cell Signaling Technology, Beverly, Mass.) 1:50. […]

With `CO[C@H]1C[C@@H]2CC[C@@H](C)[C@@](O)(O2)C(=O)C(=O)N2CCCC[C@H]2C(=O)O[C@H]([C@H](C)C[C@@H]2CC[C@@H](OC(=O)C(C)(CO)CO)[C@H](OC)C2)CC(=O)[C@H](C)/C=C(\C)[C@@H](O)[C@@H](OC)C(=O)[C@H](C)C[C@H](C)/C=C/C=C/C=C/1C` [temsirolimus, Temsirolimus] the “S6-RP phosphorylation ex vivo” value (S6-RP; all tumors of the xenograft panel sensitive to therapy, temsirolimus 1 μM, 6 hours) was “blocked S6-RP phosphorylation”, the “S6-RP phosphorylation ex vivo” value (S6-RP; cancer cells from pancreatic cancer patient 1, six hours) was “only partially decreased S6-RP phosphorylation” and the “phosphorylation of S6-RP ex vivo” value (S6-RP; cells from tumor A198, temsirolimus 1 μM, 6 hours) was “inhibited phosphorylation of S6-RP”. For the same compound, the “S6-RP phosphorylation ex vivo” value (S6-RP; tumor cells of pancreatic cancer patient 2 and 3, six hours) was “inhibited S6-RP phosphorylation”, the “inhibition of tumor growth” value [1] was 70% and the “IHC staining for phosphorylated p70S6K” value (p70S6K; tumor A194, in vivo treated with temsirolimus) was “no effect”. For the same compound, the “IHC staining for phosphorylated p70S6K” value (p70S6K; tumor A198, in vivo treated with temsirolimus) was “strongly decreased staining”.

Reference: patent publication US20090325202A1, “Methods for Developing and Assessing Therapeutic Agents” (priority 2006, published 2009)
